Results on nine compounds are retold here after patent publication US6861431B2, “Compounds capable of modulating the activity of multidrug transporters and therapeutic use of the same” (The Board of Trustees of the University of Illinois, priority 2001, dated 2005).

Values after ≈ are worked out from the molar mass of the structure shown. “Also recorded” adds a separate entry of the source. Like-named read-outs stand apart in the source and are kept apart here.

Data set [1] concerns P-gp. The data set can be described thus: Rho123 accumulation in ConA cells. It counts as cell-based, mouse. Further details: effect on Rho123 efflux/accumulation: dose or concentration left out as unconfirmed. As to conditions: for effect on Rho123 efflux/accumulation: two hours with Rho123, flow cytometry (FIG. 8). On the procedure:
Screening of a chemical library. Murine fibroblastoid cell line (ConA) was selected as the readout system for screening a chemical library for P-gp activators. […] Rho123, a classic fluorescent P-gp substrate that is detected easily using multichannel fluorimeter in living cells, was used as an efflux indicator. […] Primary screening was performed on ConA cells for compounds that interfere with Adr-induced activation of p53-responsive reporter LacZ gene as previously described (11). To identify P-gp modulators, all “hits” isolated after primary screening were tested for their ability to modulate cellular accumulation of Rho123. Con A cells grown in 96-well plates were incubated 4 hours with 0.5 μM Rho123 in combination with individual library compounds (2 μg/ml (2-5 μM)), and cell fluorescence was analyzed using fluorescent microscopy.
(§1) Drug accumulation and efflux assay. […] For drug efflux assay, cells after drug incubation were washed thoroughly with PBS, incubated in a drug-free media with or without compounds from the chemical library, and harvested at different time points for flow cytometric analysis (18).
(§2) ConA cells were incubated two hours with Rho123 ([…]) or daunorubicin (500 ng/ml) in the presence of the identified compounds, and accumulation of the drugs was quantitated by flow cytometry.

For data set [2], the system named is P-gp. The data set is described as follows: Daunorubicin accumulation in ConA cells. The data set is classed as cell-based, mouse. As to conditions: ConA cells, two hours with daunorubicin (500 ng/ml), flow cytometry (FIG. 8). How it is done: Drug accumulation and efflux assay. […] For drug efflux assay, cells after drug incubation were washed thoroughly with PBS, incubated in a drug-free media with or without compounds from the chemical library, and harvested at different time points for flow cytometric analysis (18). […]
as §2
On the technique in general: In flow cytometry, cells or beads pass a laser one at a time.

The test system of another data set is mouse ConA cells. The data set is described as follows: DMBA sensitivity of mouse cells. The data set is classed as cell-based. How it is done: (§3) The effect of the identified compounds on DMBA sensitivity of mouse cells also was tested. It has been reported that ABC type transporters (e.g., P-gp) are involved in the efflux of polycyclic aromatic hydrocarbon carcinogens from cells. The effect of the identified compounds on sensitivity of mouse cells to 7,12-dimethylbenz[a]anthracene (DMBA) was determined. […].

Data set [3] deals with P-gp. The data set can be described thus: Rho123 efflux from preloaded ConA cells. The data set is classed as cell-based, mouse. Further details: increase of efflux of Rho123 from cells preloaded with the dye: dose or concentration left out as unconfirmed. On the procedure:
as §1
The dynamics of reduction of Rho123 fluorescence was monitored by flow cytometry.

The next data set has as its system ConA cells. The data set can be described thus: Drug sensitivity (growth inhibition) assay, ConA cells. The data set is classed as cell-based, mouse. To be noted: for IC50: Mus musculus, murine ConA cells, read-out: 50% growth inhibitory dose of the drug. On the procedure:
Drug sensitivity assays. To estimate drug-mediated growth inhibition, 10^3 cells were plated per well of 96-well plates, and incubated with a range of concentrations of drugs added 24 hours after plating. […] After elution by 1% SDS solution, optical density was determined on a Multiscan Ascent reader (Lybsystems, Helsinki, Finland) at 650 nm.

A further data set has as its system KB-3-1 cells. The data set is described as follows: Drug sensitivity assay, KB-3-1 cells (P-gp-negative). It counts as cell-based, human. On the procedure: (§4) Drug sensitivity assays. To estimate drug-mediated growth inhibition, 10^3 cells were plated per well of 96-well plates, and incubated with a range of concentrations of drugs added 24 hours after plating. After 5 to […] of drug treatment, plates were fixed and stained using 2% methylene blue solution in 50% methanol. After elution by 1% SDS solution, optical density was determined on a Multiscan Ascent reader (Lybsystems, Helsinki, Finland) at 650 nm.
(§5) To determine transporter specificity of the identified compounds, the compounds were tested on cells differing in the type of multidrug transporter expressed: KB-8-5-11 cells, (expressing P-gp), SW1753-A120 cells (expressing MRP1), and KB-3-1 (expressing neither of the above transporters and highly sensitive to drugs that are P-gp or MRP1 substrates).

For a further data set, the system named is SW1753-A120 cells. The data set is described as follows: Drug sensitivity assay, SW1753-A120 cells (expressing MRP1). As to conditions: P-gp-negative; for cell sensitivity to vinblastine: MRP1-positive cells SW1753-A120 (FIG. 13). It counts as cell-based. How it is done: as §5
Data set [4] addresses T1, P-gp (Homo sapiens, UniProt P08183). The data set is described as follows: Drug resistance of mouse ConA cells expressing human P-gp (MDR1 cDNA transfection). The data set is classed as cell-based. Further details: expressed in transfected cells; host or cells: mouse fibroblasts, line ConA, transfected with MDR1 cDNA in LNL6 (Mo-MuLV LTR promoter). The text has this: These cells are known to overexpress P-gp as result of MDR1 gene amplification. To completely eliminate possibility that some other ABC type transporter expressed in KB-8-5-11 cells might be responsible for this phenomenon, mouse fibroblasts, line ConA, permanently expressing human P-gp as a result of transfection with MDR1 cDNA-expressing plasmid LNL6 were used.

Data set [5] addresses T1, P-gp. The data set can be described thus: Rho123 accumulation in KB-8-5-11 cells. The data set is classed as cell-based. Further details: overexpressing P-gp as a result of MDR1 gene amplification (20); endogenous in cells; host or cells: KB-8-5-11 (multidrug resistant derivative of KB-3-1). To be noted: KB-8-5-11 cells overexpressing P-gp. The text has this:
(§6) Drug accumulation and efflux assay.
To test the effect of Compound 102 specifically on P-gp, a pair of human cell lines used as conventional models for studying P-gp, i.e., P-gp-negative KB-3-1 and its multidrug resistant derivative KB-8-5-11, overexpressing P-gp as a result of MDR1 gene amplification (20), were used.

The target in data set [6] is T1, P-gp. The data set can be described thus: P-gp-mediated efflux of taxol by KB-8-5-11 cells. The data set is classed as cell-based. Further details: overexpressing P-gp as a result of MDR1 gene amplification (20); endogenous in cells; host or cells: KB-8-5-11 (multidrug resistant derivative of KB-3-1).
Description: as §6
Consistent with the drug sensitivity data, Compound 102 suppressed P-gp-mediated efflux of taxol by KB-8-5-11 cells, acting as a P-gp inhibitor for this drug (FIGS. 4 and 5). These observations indicate that Compound 102 should be defined as a modulator rather than a general activator of P-gp that acts by changing relative substrate specificity of the transporter.

In a further data set the test system is KB-8-5-11 cells. The data set can be described thus: Drug sensitivity assay, KB-8-5-11 cells (P-gp-positive). The data set is classed as cell-based, human. As to conditions: for IC50: Homo sapiens, human KB-8-5-11 cells, read-out: 50% growth inhibitory dose of the drug. On the procedure:
as §4, §5

Data set [7] can be described thus: DMBA sensitivity of mouse cells. As to conditions: mouse fibroblasts, three days, without Compound 102; read-out: IC50 of DMBA cytotoxicity. It counts as cell-based. How it is done:
as §3

The subject of data set [8] is P-gp. How it is done:
as §4, §1

Data set [9] concerns the target T1, P-gp.
The target of data set [10] is T1, P-gp. This is another data set of the same source.

T1 sequence (P08183 whole entry): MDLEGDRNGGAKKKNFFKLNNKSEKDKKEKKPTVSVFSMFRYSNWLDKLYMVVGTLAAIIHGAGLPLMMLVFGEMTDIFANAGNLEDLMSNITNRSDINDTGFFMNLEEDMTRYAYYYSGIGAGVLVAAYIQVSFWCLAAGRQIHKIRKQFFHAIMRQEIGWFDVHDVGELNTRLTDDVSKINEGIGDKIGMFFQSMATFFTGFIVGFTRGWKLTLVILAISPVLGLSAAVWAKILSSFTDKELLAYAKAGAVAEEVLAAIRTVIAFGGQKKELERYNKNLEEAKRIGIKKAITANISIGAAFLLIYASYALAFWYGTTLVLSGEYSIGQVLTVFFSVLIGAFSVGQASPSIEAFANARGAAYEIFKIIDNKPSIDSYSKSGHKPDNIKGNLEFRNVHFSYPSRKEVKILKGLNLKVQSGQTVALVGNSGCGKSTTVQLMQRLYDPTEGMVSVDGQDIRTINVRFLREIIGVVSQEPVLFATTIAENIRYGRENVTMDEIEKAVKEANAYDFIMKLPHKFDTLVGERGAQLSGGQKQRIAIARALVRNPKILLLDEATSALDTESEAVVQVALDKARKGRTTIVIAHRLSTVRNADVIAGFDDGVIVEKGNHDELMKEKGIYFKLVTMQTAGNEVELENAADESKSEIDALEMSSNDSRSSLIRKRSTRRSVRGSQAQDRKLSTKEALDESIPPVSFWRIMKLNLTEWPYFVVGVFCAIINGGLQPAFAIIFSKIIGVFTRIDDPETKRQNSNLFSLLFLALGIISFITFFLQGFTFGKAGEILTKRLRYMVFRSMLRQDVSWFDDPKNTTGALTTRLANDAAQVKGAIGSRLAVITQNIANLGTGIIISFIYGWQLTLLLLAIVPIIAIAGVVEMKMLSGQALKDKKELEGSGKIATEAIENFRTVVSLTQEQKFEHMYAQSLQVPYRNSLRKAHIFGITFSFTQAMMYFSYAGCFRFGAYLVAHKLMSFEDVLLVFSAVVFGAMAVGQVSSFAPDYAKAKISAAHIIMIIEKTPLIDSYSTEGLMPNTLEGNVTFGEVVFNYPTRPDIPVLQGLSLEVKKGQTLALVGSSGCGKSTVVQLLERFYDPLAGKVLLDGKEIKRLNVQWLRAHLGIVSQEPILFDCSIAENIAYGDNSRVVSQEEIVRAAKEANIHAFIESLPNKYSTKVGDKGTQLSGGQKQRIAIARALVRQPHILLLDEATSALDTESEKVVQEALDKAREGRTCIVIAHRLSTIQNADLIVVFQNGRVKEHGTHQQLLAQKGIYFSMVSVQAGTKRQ

On to `C=CCn1c2ccccc2n2cc(-c3ccccc3)nc12` [Compound 11, 8-Allyl-2-phenyl-8H-1,3a,8-triaza-cyclopenta[a]indene], for which the “effect on Rho123 efflux/accumulation” value with P-gp [1] was “strong effect”. In addition, the “effect on daunorubicin accumulation” value in the data set with P-gp [2] was “two to four times less pronounced effect”. The “protection of cells from cytotoxicity of DMBA” value (from here on “protection of cells”) in the data set with mouse ConA cells was “strong protective effect”.
Take `Nc1nc(SCCc2ccccc2)nc2sc3c(c12)CCCC3` [Compound 13, 2-Phenethylsulfanyl-5,6,7,8-tetrahydro-benzo[4,5]thieno[2,3-d]pyrimidin-4-ylamine]: in the data set with P-gp [1], the “effect on Rho123 efflux/accumulation” value is “strong effect”. In the data set with P-gp [2], the “effect on daunorubicin accumulation” value is given as “two to four times less pronounced effect”. In addition, the “protection of cells” value in the data set on mouse ConA cells was “strong protective effect”.
For the compound `Cc1ccc(-c2nnc(-c3ccccc3Cl)o2)s1` [Compound 16, 2-(2-Chloro-phenyl)-5-(5-methyl-thiophen-2-yl)-[1,3,4]oxadiazole], in the data set with P-gp [1], the “effect on Rho123 efflux/accumulation” value was “relatively effective”. Moreover, in the data set with P-gp [2], the “effect on daunorubicin accumulation” value is listed as “weak influence”. Also, the “protection of cells” value with mouse ConA cells is “strong protective effect”.
In the case of `Cc1ccc(-c2cn3c4c(sc3n2)CCCC4)cc1` [Compound 102, 2-p-Tolyl-5,6,7,8-tetrahydro-benzo[d]imidazo[2,1-b]thiazole], in the data set on P-gp [3] (ConA cells loaded with Rho123, Rho123-free medium, with vs without Compound 102 (FIGS. 2 and 3)), the “increase of efflux of Rho123 from cells preloaded with the dye” value was “about 20 times”. The “cell sensitivity to colcemide” value in the data set on ConA cells (ConA cells grown 72 hours with drug with or without Compound 102 (FIG. 6)) is “no effect”. Moreover, in the data set on KB-3-1 cells (P-gp-negative cell line KB-3-1), the “effect on drug sensitivity” value was “No effect”. Also, the “cell sensitivity to vinblastine” value with SW1753-A120 cells is “no effect”. Moreover, the “cell sensitivity to doxorubicin” value in the data set with SW1753-A120 cells (MRP1-positive cells SW1753-A120 (FIG. 16)) is given as “no effect”. Besides, in the data set with mouse ConA cells, the “protection of cells” value is recorded as “strongly protects”. For the same compound, the “increase of natural level of resistance to DMBA” value in the data set with mouse ConA cells (mouse fibroblasts, 10 μM Compound 102) was “greater than 15 fold”. Besides, on P-gp [4] (mouse ConA fibroblasts expressing human P-gp (FIG. 10)), the resistance to doxorubicin entry is on record as “increased resistance”. Besides, on P-gp [4] (mouse ConA fibroblasts expressing human P-gp (data not shown)), the resistance to vinblastine result was “decreased resistance”. For the same compound, on P-gp [5], the Rho123 accumulation entry is given as “strongly decreased”. For the same compound, at P-gp [6], the “P-gp-mediated efflux of taxol” value is “suppressed”.
For `Cc1ccccc1Cn1c(=O)sc2ccccc21` [Compound 103], the “cell sensitivity to doxorubicin” value was “increase cell sensitivity” in the data set on KB-8-5-11 cells (P-gp-positive cells KB-8-5-11 (FIG. 15)); “can increase cell resistance” with KB-3-1 cells (P-gp- and MRP1-negative cells KB-3-1 (FIG. 17)). Further, the “cell sensitivity to vinblastine” value in the data set with KB-3-1 cells (P-gp- and MRP1-negative cells KB-3-1 (FIG. 14)) is listed as “weak sensitizing effect”; with SW1753-A120 cells, “increases; also recorded: weak sensitizing effect”.
With `Cc1c2ccccc2c(C)c2c1ccc1ccccc12` [DMBA, 7,12-dimethylbenz[a]anthracene], the IC50 at 3 days in data set [7] amounted to 310 nM. For the same compound, the IC50 in the data set on mouse ConA cells (Mus musculus, Fibroblast, 72 h, read-out: IC50 of DMBA cytotoxicity) was 5000 nM.
For the compound `COc1cccc2c1C(=O)c1c(O)c3c(c(O)c1C2=O)C[C@@](O)(C(=O)CO)C[C@@H]3O[C@H]1C[C@H](N)[C@H](O)[C@H](C)O1` [Doxorubicin, adriamycin], the “Change in sensitivity (x-fold)” value with ConA cells (ConA cells, Compound 102 (10 μM), fold resistance) is 6 x-fold. The IC50 came out at 0.3 µg/mL (≈ 0.552 µM) with ConA cells (with Compound 102), 0.05 µg/mL (≈ 0.092 µM) in the data set with ConA cells (without Compound 102), 1.2 µg/mL (≈ 2.21 µM) in the data set with KB-8-5-11 cells (with Compound 102) and 0.2 µg/mL (≈ 0.368 µM) with KB-8-5-11 cells (without Compound 102). For the same compound, in the data set with ConA cells (P-gp-positive ConA cells, label = drug), the “Effect of Compound 102 on drug sensitivity of cell lines: ConA (Balb 3T3)” value is “R”. In the data set with P-gp [8], the “cytotoxicity of the drug in the presence of Compound 102” value is “less toxic”.
As for `CC(=O)[C@H]1CC[C@H]2[C@@H]3CCC4=CC(=O)CC[C@]4(C)[C@H]3CC[C@]12C` [progesterone], on P-gp [9], the “effect on P-gp-mediated Rho123 efflux” value was “weak effect”. Further, the “changes in cell cross resistance to P-gp substrates tested” value on P-gp [10] is on record as “did not cause detectable changes”.
`COC(=O)[C@H]1[C@H]2C[C@@H]3c4[nH]c5cc(OC)ccc5c4CCN3C[C@H]2C[C@@H](OC(=O)c2cc(OC)c(OC)c(OC)c2)[C@@H]1OC` [reserpine]: in the data set on P-gp [1] (identified compounds present), the “effect of P-gp inhibitor on compound-mediated reduction of Adr and Rho123 accumulation” value is reported as “completely reverted”. Moreover, the “effect of P-gp inhibitor on Compound 102-stimulated Rho123 efflux” value with P-gp [3] (ConA cells preloaded with Rho123, Compound 102 present) is “completely reverted”.
